Laboratory results as given in patent US10668040B2, “Treatment of urea cycle disorders in neonates and infants” (Horizon Therapeutics, LLC, priority 2017, dated 2020).

Experiment: Example 3: plasma PBA, PAA, PAGN PK on first full day of RAVICTI dosing
Format: in vivo, human
Protocol: (§1) Pharmacokinetic (PK) Evaluable Population: all subjects from the safety population with individual concentration-time profiles that allow computation of meaningful PK parameter values. Measurements were taken at hour 0, between 4 and 6 hours, 8 hours, and between 12 and 24 hours after the first dose of the day on day 1 for stable subjects and on day 2 for subjects in HAC.
as §1, with “PK” for “Pharmacokinetic (PK)”

[1] = aged 0 to 2 months, 16 subjects
[2] = aged 2 months and up to 2 years, 10 subjects

O=C(CCCc1ccccc1)OCC(COC(=O)CCCc1ccccc1)OC(=O)CCCc1ccccc1 [RAVICTI, benzenebutanoic acid, 1′,1″-(1,2,3-propanetriyl) ester]
Plasma PBA mean Cmin (aged 0 to 2 months, 7 subjects): 4.8 (±4.2) μg/mL
mean plasma PAA Cmin (aged 0 to 2 months, 10 subjects): 98.98 (±122.07) μg/mL
mean plasma PAGN Cmin (aged 0 to 2 months, 13 subjects): 69.39 (±54.03) μg/mL
Plasma PBA mean AUC[0-last] [1]: 374.53 (±390.48) μg*hr/mL
Plasma PBA mean Cmax [1]: 46.2 (±49.8) μg/mL
Plasma PBA mean Tmax [1]: 9.39 (±7.41) hr
mean plasma PAA AUC(0-last) [1]: 1321.18 (±1220.52) μg*hr/mL
mean plasma PAA Cmax [1]: 115.3 (±102.0) μg/mL
mean plasma PAA Tmax [1]: 9.85 (±9.26) hr
mean plasma PAGN AUC(0-last) [1]: 1384.12 (±1141.03) μg*hr/mL
mean plasma PAGN Cmax [1]: 102.1 (±48.6) μg/mL
mean plasma PAGN Tmax [1]: 11.72 (±8.24) hr
Plasma PBA mean AUC[0-last] [2]: 280.936 (±293.553) μg*hr/mL
Plasma PBA mean Cmax [2]: 42.11 (±36.715) μg/mL
Plasma PBA mean Cmin [2]: 1.697 (±2.254) μg/mL
Plasma PBA mean Tmax [2]: 8.383 (±4.564) hr
mean plasma PAA AUC(0-last) [2]: 246.126 (±238.547) μg*hr/mL
mean plasma PAA Cmax [2]: 36.52 (±31.784) μg/mL
mean plasma PAA Cmin [2]: 4.197 (±6.434) μg/mL
mean plasma PAA Tmax [2]: 7.422 (±7.351) hr
mean plasma PAGN AUC(0-last) [2]: 583.835 (±285.241) μg*hr/mL
mean plasma PAGN Cmax [2]: 62.45 (±27.281) μg/mL
mean plasma PAGN Cmin [2]: 20.62 (±14.529) μg/mL
mean plasma PAGN Tmax [2]: 6.573 (±7.181) hr
